Tested on: washed human platelets
Assay: Inhibition of ADP-induced platelet aggregation in washed human platelets
Assay type: cell-based
Procedure: Isolation of Platelets: Human blood is obtained from informed healthy adult volunteers. Blood is collected into one-sixth volume of acid/citrate/dextrose (ACD) buffer (85 mM sodium citrate, 65 mM citric acid, and 100 mM glucose). Collected blood is placed in a water bath at 37° C. for 30 minutes. Blood is then centrifuged at 275×g for 16 minutes at room temperature and the platelet-rich plasma is removed and centrifuged at 2200×g for 13 minutes at room temperature. The platelet pellet is resuspended in 40 mL of HEPES-buffered Tyrode's solution (137 mM NaCl, 2.7 mM KCl, 1 mM MgCl2, 2 mM CaCl2, 12 mM NaHCO3, 0.36 mM NaH2PO4, 5.5 mM glucose, 5 mM HEPES pH 7.4, 0.35% bovine serum albumin or 0.35% human serum albumin) containing 10 U/mL heparin and 5 μM (final concentration) prostaglandin 12 (PGI2). The platelet suspension is incubated in a 37° C. water bath for 10 minutes and then 5 μM (final conc.) PGI2 is added just before centrifugation at 1900×g for 8 minutes. The resulting pellet is resuspended in 40 mL of HEPES-buffered Tyrode's solution containing 5 μM (final concentration) PGI2 and then is incubated for 10 minutes in a 37° C. water bath. A small aliquot (500 μL) of the platelet suspension is removed for platelet counting. Prior to centrifugation 5 μM (final concentration) PGI2 is added to the suspension and then the suspension is centrifuged at 1900×g for 8 minutes. The pellet is resuspended at a density of 5×10^8 cells/mL in HEPES-buffered Tyrode's solution containing 0.05 U/mL apyrase.
Aggregation Studies: ADP-induced platelet aggregation is determined by measuring the transmission of light through a 0.5 ml suspension of stirred (1000 rpm) washed platelets in a lumi-aggregometer at 37° C. (Chrono-Log Corp. Havertown, Pa.). The baseline of the instrument is set using 0.5 ml of Hepes-buffered Tyrode's solution. Prior to aggregation measurements, the platelet suspension is supplemented with 1 mg/ml fibrinogen. Platelet aggregation is initiated by the addition of indicated concentrations of ADP or other agonists, and the light transmission is continuously recorded for at least 8 min. When inhibitors of platelet aggregation are tested, platelets are incubated for 2 min in the presence of indicated concentrations of inhibitor before addition of ADP or other agonists, and the response is recorded for at least 8 min. The potency of agonists and inhibitors of platelet aggregation is calculated from both the rate of aggregation and the maximal extent of aggregation obtained for each determination by fitting the data to a four-parameter logistic equation using the GraphPad software package (GraphPad Corp. San Diego, Calif.).
IC50 values represent the concentration of antagonist necessary to inhibit by 50% the aggregation elicited by a given concentration of ADP.
Platelet IC50 data were determined using washed human platelets, according to the protocol of example 14. Agonist challenge (ADP) typically in the range of 1-5 μM.

## CC1(C)OC2C(COc3ccc(C(=O)O)cc3C(=O)O)OC(n3cnc4c(NC(=O)Nc5ccccc5)ncnc43)C2O1 (centres unmarked) [Compound 1, 4-{2,2-Dimethyl-6-[6-(3-phenyl-ureido)-purin-9-yl]-tetrahydro-furo[3,4-d][1,3]dioxol-4-ylmethoxy}-isophthalic acid]
Homo sapiens, Platelet, read-out: PLATELET DATA IC50 (uM) Washed Platelets, washed human platelets, agonist challenge (ADP) typically 1-5 μM, average of two experiments or more
  IC50: 6.6 µM
Comment on Table 1 data, washed human platelets
  activity as antagonists of P2Y12-mediated platelet aggregation (in words): show P2Y12 antagonist activity
